What all share (test): tumor cell line panel, SRB growth assay
Common to all, as to type: cell-based

In one assay the test system is COLO 205. As to conditions: Homo sapiens; COLO 205, Colon, 48 hours. Here is the method:
(§1) The compound of example 5 was also evaluated against a panel of cancer cell lines (Alley, M.C. et al. […] Cancer Research 48: 589-601; Grever, M. R., et al. (1992) Seminars in Oncology, Vol. 19, No. 6, pp 622-638; Boyd, M. R., and Paull, K. D. (1995) Drug Development Research 34: 91-109). The human tumor cell lines of the cancer screening panel were grown in RPMI 1640 medium containing 5% fetal bovine serum and 2 mM L-glutamine. Cells were inoculated into 96 well microtiter plates in 100 μL at plating densities ranging from 5,000 to 40,000 cells/well depending on the doubling time of individual cell lines. After cell inoculation, the microtiter plates were incubated at 37° C., 5 % CO2, 95 % air and 100 % relative humidity for 24 hours prior to addition of experimental drugs.
(§2) After the 24 hour incubation period, two plates of each cell line were fixed in situ with TCA, to represent a measurement of the cell population for each cell line at the time of drug addition (Tz). Experimental drugs were solubilized in dimethyl sulfoxide at 400-fold the desired final maximum test concentration and stored frozen prior to use. At the time of drug addition, an aliquot of frozen concentrate was thawed and diluted to twice the desired final maximum test concentration with complete medium containing 50 μg/ml gentamicin. Additional four, 10-fold or ½ log serial dilutions were made to provide a total of five drug concentrations plus control. Aliquots of 100 μl of these different drug dilutions were added to the appropriate microtiter wells already containing 100 μl of medium, resulting in the required final drug concentrations.
(§3) Following drug addition, the plates were incubated for an additional 48 hours at 37° C., 5 % CO2, 95 % air, and 100 % relative humidity. For adherent cells, the assay was terminated by the addition of cold TCA. Cells were fixed in situ by the gentle addition of 50 μl of cold 50 % (w/v) TCA (final concentration, 10% TCA) and incubated for 60 minutes at 4° C. The supernatant was discarded, and the plates were washed five times with tap water and air dried. Sulforhodamine B (SRB) solution (100 μl) at 0.4 % (w/v) in 1 % acetic acid were added to each well, and plates were incubated for 10 minutes at room temperature. After staining, unbound dye was removed by washing five times with 1 % acetic acid and the plates were air dried. Bound stain was subsequently solubilized with 10 mM trizma base, and the absorbance was read on an automated plate reader at a wavelength of 515 nm. For suspension of the cells, the methodology used was the same except that the assay was terminated by fixing settled cells at the bottom of the wells by gently adding 50 μl of 80 % TCA (final concentration, 16% TCA). Using the seven absorbance measurements [time zero, (Tz), control growth, (C), and test growth in the presence of drug at the five concentration levels (Ti)], the percentage growth was calculated at each of the drug concentrations levels.
(§4) Percentage growth inhibition was calculated as: [(Ti−Tz)/(C−Tz)]×100 for concentrations for which Ti>/=Tz [(Ti−Tz)/Tz]×100 for concentrations for which Ti<Tz.
(§5) Growth inhibition of 50% (GI50) was calculated from [(Ti−Tz)/(C−Tz)]×100=50, which is the drug concentration resulting in a 50% reduction in the net protein increase (as measured by SRB staining) in control cells during the drug incubation. The G150 was calculated for each of the cell lines if the level of activity is reached; however, if the effect was not reached or is exceeded, the value for that parameter is expressed as greater or less than the maximum (10^−4 M) or minimum (10^−8 M) concentration tested.

Another assay concerns DU-145. As to conditions: Homo sapiens; DU-145, Prostate, 48 hours. How it is done: as §1, §2, §3, §4, §5
For another assay, the system named is EKVX. As to conditions: Homo sapiens, Non-Small Cell Lung, 48 hours. How it is done:
as §1, §2, §3, §4, §5

The subject of another assay is HCT-116. As to conditions: Homo sapiens; HCT-116, Colon, 48 hours. How it is done: as §1, §2, §3, §4, §5
For the next assay, the system named is HL-60(TB). As to conditions: Homo sapiens, Leukemia, 48 hours. How it is done: as §1, §2, §3, §4, §5
The test system of another assay is HOP-92. Particulars: Homo sapiens; HOP-92, Non-Small Cell Lung, 48 hours. Here is the method: as §1, §2, §3, §4, §5
In a further assay the test system is K-562. As to conditions: Homo sapiens, K562; K-562, Leukemia, 48 hours. Here is the method: as §1, §2, §3, §4, §5
Another assay has as its system KM12. As to conditions: Homo sapiens; KM12, Colon, 48 hours. Here is the method:
as §1, §2, §3, §4, §5

In another assay the test system is M14. Particulars: Homo sapiens; M14, Melanoma, 48 hours. How it is done: as §1, §2, §3, §4, §5
Another assay deals with MCF7. Particulars: Homo sapiens; MCF7, Breast, 48 hours. Here is the method:
as §1, §2, §3, §4, §5

The next assay relates to MOLT-4. Particulars: Homo sapiens; MOLT-4, Leukemia, 48 hours. How it is done:
as §1, §2, §3, §4, §5

The test system of the next assay is NCI-H226. Particulars: Homo sapiens; NCI-H226, Non-Small Cell Lung, 48 hours. Here is the method:
as §1, §2, §3, §4, §5

The subject of a further assay is NCI-H23. As to conditions: Homo sapiens; NCI-H23, Non-Small Cell Lung, 48 hours. How it is done:
as §1, §2, §3, §4, §5

The subject of the next assay is OVCAR-3. As to conditions: Homo sapiens; OVCAR-3, Ovarian, 48 hours. Here is the method:
as §1, §2, §3, §4, §5

For the next assay, the system named is OVCAR-4. As to conditions: Homo sapiens; OVCAR-4, Ovarian, 48 hours. Here is the method:
as §1, §2, §3, §4, §5

The next assay deals with PC-3. Particulars: Homo sapiens; PC-3, Prostate, 48 hours. Here is the method:
as §1, §2, §3, §4, §5

A further assay concerns SF-539. Particulars: Homo sapiens; SF-539, CNS, 48 hours. How it is done: as §1, §2, §3, §4, §5
In the next assay the test system is SK-MEL-2. As to conditions: Homo sapiens; SK-MEL-2, Melanoma, 48 hours. Here is the method: as §1, §2, §3, §4, §5
In another assay the test system is SK-OV-3. As to conditions: Homo sapiens; SK-OV-3, Ovarian, 48 hours. How it is done:
as §1, §2, §3, §4, §5

Another assay concerns SNB-19. As to conditions: Homo sapiens; SNB-19, CNS, 48 hours. Here is the method: as §1, §2, §3, §4, §5
The test system of another assay is SW-620. As to conditions: Homo sapiens; SW-620, Colon, 48 hours. Here is the method:
as §1, §2, §3, §4, §5

A value given as a limit tells only on which side of the number the result lay.

In the case of `CO[C@@H]1[C@H](OC(=O)N[C@@H](C(N)=O)C(C)C)CC[C@]2(CO2)[C@H]1[C@@]1(C)O[C@@H]1CC=C(C)C` [Example 5, (1-Carbamoyl-2-methyl-propyl)-carbamic acid-(3R, 4S, 5S, 6R )-5-methoxy-4-[(2R, 3R)-2-methyl-3-(3-methyl-but-2-enyl)-oxiranyl]-1-oxa-spiro[2.5]oct-6-yl ester], the GI50 in the assay with COLO 205 is under 0.01 µM; in the assay on DU-145, under 0.01 µM; in the assay on EKVX, 20.8 µM; in the assay with HCT-116, under 0.01 µM; with HL-60(TB), 21.7 µM; in the assay on HOP-92, 33.9 µM. The GI50 was 64.4 µM with K-562; under 0.01 µM in the assay with KM12; under 0.01 µM with M14; 12.4 µM with MCF7; 35.6 µM in the assay with MOLT-4; 0.791 µM in the assay on NCI-H226. Further, the GI50 with NCI-H23 is 6.34 µM; with OVCAR-3 it was 41.8 µM; in the assay on OVCAR-4 it was 36.6 µM; with PC-3, 18 µM; with SF-539, 20.6 µM; in the assay on SK-MEL-2, over 100 µM. Also, the GI50 in the assay with SK-OV-3 was 7.37 µM; with SNB-19, under 0.01 µM; in the assay with SW-620, over 100 µM.

(Values after US20050059585A1, “Methionine aminopeptidase-2 inhibitors and methods of use thereof” (Praecis Pharmaceuticals Inc., priority 2000, published 2005).)
